Experimental data: the supplement of paper PMC10878532, “Sperm Toolbox—A selection of small molecules to study human spermatozoa” (PLOS ONE, 2024)
Counter-ions that a name gives are not always drawn.

Key:
[1] = test system: human spermatozoa; test: change in acrosome-reacted (PNA+) sperm vs DMSO, no agonist (capacitating); higher = more of the measured sperm population than DMSO, for viability, fewer PI-positive (dead) cells than DMSO; conditions: incubation time: 3h
[2] = test system: human spermatozoa; test: hyperactivated motile sperm, percent change vs DMSO (capacitating); higher = more of the measured sperm population than DMSO, for viability, fewer PI-positive (dead) cells than DMSO; conditions: incubation time: 30min incubation
[3] = test system: human spermatozoa; test: acrosome-reacted (PNA+) sperm after agonist cocktail, percent change vs DMSO (capacitating); higher = more of the measured sperm population than DMSO, for viability, fewer PI-positive (dead) cells than DMSO; conditions: incubation time: 3h, capacitating + agonist cocktail 1h
[4] = test system: HeLa; test: Cell Painting percent induction (share of features beyond 2 z-scores vs DMSO); higher = more features changed / larger toxic effect; extreme values may be limits of the assay; conditions: incubation time: 24h incubation
[5] = test system: HeLa; test: HeLa toxicity: nuclei-count effect normalised to DMSO (DMSO = 0); higher = more features changed / larger toxic effect; conditions: incubation time: 24h incubation
[6] = test system: human spermatozoa; test: progressively motile sperm, percent change vs DMSO (non-capacitating); higher = more of the measured sperm population than DMSO, for viability, fewer PI-positive (dead) cells than DMSO; extreme values may be limits of the assay
[7] = test system: human spermatozoa; test: total motile sperm, percent change vs DMSO (non-capacitating); higher = more of the measured sperm population than DMSO, for viability, fewer PI-positive (dead) cells than DMSO
[8] = test system: human spermatozoa; test: viability fold change, 1 - (PI-positive fraction / DMSO median); higher = more of the measured sperm population than DMSO, for viability, fewer PI-positive (dead) cells than DMSO; conditions: incubation time: 3h, non-capacitating
[9] = test system: human spermatozoa; test: progressively motile sperm, percent change vs DMSO (capacitating); higher = more of the measured sperm population than DMSO, for viability, fewer PI-positive (dead) cells than DMSO; conditions: incubation time: 30min incubation
[10] = test system: HepG2; test: HepG2 toxicity (resazurin), effect normalised to DMSO (DMSO = 0); higher = more features changed / larger toxic effect; conditions: incubation time: 70h incubation
[11] = incubation time: 10min incubation, 9.99 µM
[12] = incubation time: 10min incubation, 29.9 µM
[13] = incubation time: 3h incubation, 9.99 µM
[14] = incubation time: 3h incubation, 29.9 µM
[15] = incubation time: 6h incubation, 9.99 µM
[16] = incubation time: 6h incubation, 29.9 µM
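For progressively motile sperm, percent change vs DMSO (non-capacitating) in this document: pooled live human sperm from at least 3 donors, tracked by automated microscopy in 0.5 s time-lapse movies, compounds at 10 and 30 µM, versus median of 16 DMSO wells per plate.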
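For total motile sperm, percent change vs DMSO (non-capacitating) in this document: sperm pooled from at least 3 donors, tracked in 0.5 s time-lapse movies by automated microscopy after 10 min, 3 h or 6 h with compound at 10 or 30 µM.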

| Structure (SMILES) | change in acrosome-reacted ([1]; 9.99 µM) [%] | change in acrosome-reacted ([1]; 29.9 µM) [%] | hyperactivated motile sperm ([2]; 9.99 µM) [%] | hyperactivated motile sperm ([2]; 29.9 µM) [%] | acrosome-reacted ([3]; 9.99 µM) [%] | acrosome-reacted ([3]; 29.9 µM) [%] | Cell Painting percent induction ([4]; 9.99 µM) [%] | Cell Painting percent induction ([4]; 29.9 µM) [%] | HeLa toxicity: nuclei-count effect normalised ([5]; 9.99 µM) [%] | HeLa toxicity: nuclei-count effect normalised ([5]; 29.9 µM) [%] | progressively motile sperm [6, 11] [%] | progressively motile sperm [6, 12] [%] | progressively motile sperm [6, 13] [%] | progressively motile sperm [6, 14] [%] | progressively motile sperm [6, 15] [%] | progressively motile sperm [6, 16] [%] | total motile sperm [7, 11] [%] | total motile sperm [7, 12] [%] | total motile sperm [7, 13] [%] | total motile sperm [7, 14] [%] | total motile sperm [7, 15] [%] | total motile sperm [7, 16] [%] | viability fold change ([8]; 9.99 µM) | viability fold change ([8]; 29.9 µM) | progressively motile sperm ([9]; 9.99 µM) [%] | progressively motile sperm ([9]; 29.9 µM) [%] | HepG2 toxicity ([10]; 10 µM) [%] | HepG2 toxicity ([10]; 30 µM) [%] |
| --- | --- | --- | --- | --- | --- | --- | --- | --- | --- | --- | --- | --- | --- | --- | --- | --- | --- | --- | --- | --- | --- | --- | --- | --- | --- | --- | --- | --- |
| c1ccc2c(c1)SCc1c-2[nH]c2ccccc12 | 0.192 | 0.819 | -56.3 | -84.3 | 3.76 | -34.5 | 30.2 | 46 | 83.9 | 99.3 | -81.3 | -99.9 | -74.4 | -100 | -76 | -99.9 | -62 | -88.1 | -66.5 | -92.9 | -54.6 | -91.4 | 0.409 | 0.115 | -60.3 | -95.6 | 10.5 | 102 |
| CC1(C)CC=C(c2ccccc2)c2cc(/C=C/c3ccc(C(=O)O)cc3)ccc21 | 1.18 | 1.38 | -3.7 | -30.1 | 10.6 | 7.54 | 0 | 0 | 6.08 | 8.35 | 8.04 | 5.98 | 18.8 | 9.32 | 6.74 | 13 | 2.52 | 2.83 | 0.861 | 0.353 | -4.19 | 0.705 | -1.22 | -0.368 | -4.62 | -9.29 | 0.925 | -8.39 |
| Cc1ccc(S(=O)(=O)c2ccc([N+](=O)[O-])o2)cc1 | 3.49 | 4.92 | 3.4 | 0.123 | 81 | 103 | 18.5 | 9.8 | 83 | 88.8 | -30.4 | -44.1 | -96.9 | -100 | -99.3 | -100 | -0.166 | -5.06 | -76.8 | -91.9 | -86.5 | -92.7 | -1.25 | -1.57 | -9.29 | -10.6 | 103 | 103 |
| CCCCCCCCOc1ccc(-c2noc([C@@H]3CCCN3C(=N)N)n2)cc1C(F)(F)F | 46.2 | 70.7 | -41.8 | -89.2 | 114 | 138 | 15.4 | 6.63 | 35.1 | 82.8 | 19.2 | -91.9 | -94.9 | -100 | -99.9 | -99.9 | 0.514 | -52.9 | -72.1 | -92.8 | -86.2 | -93.7 | -1.83 | -2.7 | -6.84 | -99.7 | 8.34 | 102 |
| CN(c1ccccc1CNc1nc(Nc2ccc3c(c2)CC(=O)N3)ncc1C(F)(F)F)S(C)(=O)=O | 0.291 | 0.085 | 41.5 | -30.2 | -10.6 | -8.83 | 8.65 | 17.7 | 81.5 | 90.7 | 20.2 | 16.8 | 29.9 | 21.7 | 40.3 | 24.4 | -4.4 | -6.03 | -7.55 | -13.4 | -11 | -16.3 | -1.76 | -1.35 | -2.37 | -3.01 | 95.1 | 90.2 |
| COc1cc(N2CCOCC2)ccc1Nc1ncc(F)c(Nc2ccccc2NS(C)(=O)=O)n1 | 0.77 | -0.256 | 7.89 | -19.1 | -20.4 | -26.8 | 0.324 | 14.1 | 12 | 70.3 | -27.7 | -60.9 | -32.8 | -74.5 | -27 | -69.7 | -2.71 | -11.9 | -6.38 | -20.1 | -5.57 | -17.4 | 0.0946 | 0.0988 | -10.8 | -4.79 | 11.9 | 14 |
| CCc1cc(Nc2nccc(-c3c(-c4ccc(OC)c(C(=O)Nc5c(F)cccc5F)c4)nc4ccccn34)n2)c(OC)cc1N1CCC(N2CCN(S(C)(=O)=O)CC2)CC1 | 0.271 | -0.0593 | -15.3 | -19 | -8.69 | 2.76 | 0 | 0.036 | 4.68 | -3.87 | 4.67 | 2.77 | 36.3 | 31.8 | 50.7 | 33.6 | -4.19 | -0.876 | -8.85 | -6.8 | -6.63 | -13 | 0.344 | 0.176 | -19.6 | -24.3 | 3.43 | -1.34 |
| O=C(c1cccs1)c1no[n+]([O-])c1C(=O)c1cccs1 | 1.47 | 2.4 | -32.4 | -81.3 | -24.1 | -23.9 | 0.216 | 14.3 | 36.5 | 82 | -17 | -39.6 | -29.1 | -78.3 | -50.4 | -91.5 | 1.03 | 2.49 | -13.1 | -40.1 | -30.5 | -54.9 | -0.427 | -1.21 | 0.304 | -15.7 | 103 | 103 |
| Nc1nonc1C(=O)c1cccc(OCc2nc3ccccc3[nH]2)c1 [ASI-8] | 0.432 | 0.568 | -38 | -39.8 | -14.8 | -14.9 | 0.036 | 0.072 | -5.48 | 1.8 | -2.86 | -2.99 | -14.7 | -20.6 | -17.4 | -29.2 | 3.13 | 2.79 | 1.2 | -0.414 | 3.96 | 1.2 | -0.34 | -0.223 | 11.1 | 6.99 | 7.95 | -4.37 |
| NC(=O)Nc1cc(-c2cccc(F)c2)sc1C(=O)N[C@H]1CCCNC1 [AZD 7762 hydrochloride] | 0.07 | 1.03 | -57.9 | -72 | -44.6 | -44 | 17 | 11 | 80.1 | 76.8 | -49.3 | -57.6 | -35.4 | -48.7 | -30.8 | -49.2 | -11.3 | -17.4 | -10.7 | -22.4 | -13.2 | -23.1 | -0.829 | -1.22 | -19.7 | -30.7 | 101 | 101 |
| CCCCC(CC)C/N=C(\N)N/C(N)=N/CCCCCC/N=C(\N)N/C(N)=N/CC(CC)CCCC (stereo not given) [Alexidine dihydrochloride] | 65.4 | 86.5 | -81.6 | -86.5 | 148 | 214 | 4.11 | 13.2 | 82.5 | 57.3 | -63.3 | -99.9 | -99.9 | -100 | -100 | -100 | -25.4 | -91.3 | -92.5 | -89.6 | -92.8 | -89.2 | -2.59 | -3.31 | -95.3 | -100 | 89.8 | 103 |
| COc1cc2nc(N(C)CCCNC(=O)C3CCCO3)nc(N)c2cc1OC (stereo not given) [Alfuzosin] | -0.201 | -0.552 | 37.3 | 5.32 | -3.12 | 0.779 | 0 | 0 | 5.08 | 0.668 | 0.477 | -1.83 | 14.5 | 16.4 | 16.7 | 20.9 | -4.58 | -4.17 | -0.419 | -6.01 | -5.29 | -6.7 | -0.036 | -0.0945 | 16 | 9.67 | -1.03 | 4.29 |
| CCCCC/C=C\C/C=C\C/C=C\C/C=C\CCCC(=O)NCCO [Anandamide] | 0.407 | 0.71 | -8.05 | -17.2 | -2.45 | -3.7 | 0 | 0 | 3.27 | 22.7 | 0.835 | 4.89 | 8.76 | 18.1 | 15.3 | 17.7 | 0.0733 | 1.31 | -5.97 | 0.46 | -4.78 | -4.35 | -1.03 | -1.89 | 5.07 | 5.94 | 4 | -4.04 |
| Cn1c(=O)c2c(-c3ccccc3)n3c(c2n(C)c1=O)[C@H](c1ccc(Br)o1)Oc1ccc(C(=O)O)cc1-3 [BPO-27] | 0.114 | -0.202 | 26.2 | 0.866 | 6.48 | 12.2 | 0.901 | 0 | -5.61 | -3.14 | 4.77 | 14.7 | 32.6 | 41.5 | 37.8 | 42.7 | -0.595 | -2.15 | 1.67 | -2.1 | 2.71 | -8.78 | -0.786 | -0.502 | -0.551 | -1.51 | 6.74 | -5.25 |
| Oc1c(Cl)cc(Cl)cc1Sc1cc(Cl)cc(Cl)c1O [Bithionol] | 0.572 | 1.65 | 4.13 | 7.86 | 1.08 | -1.64 | 0 | 0.036 | -4.61 | 21.5 | 3.11 | -10.9 | 11.4 | -27.5 | 17.4 | -30.7 | 3.44 | 1.84 | 1.98 | -0.0801 | 2.41 | -5.59 | 0.0494 | 0.376 | 2.24 | 1.88 | 7.02 | 59.3 |
